Common to all, as to assay type: functional, organism-based
The target of data set [1] is T1, ATP-binding cassette sub-family C member 2 (Mus musculus, UniProt Q8VI47). Put plainly: TP_TRANSPORTER: Western (protein level: increase to 350%) in vivo, liver of Him OF1 mouse.
Data set [2] deals with T1, ATP-binding cassette sub-family C member 2. Put plainly: TP_TRANSPORTER: RT-PCR (mRNA level: 3 fold) in vivo, liver of Him OF1 mouse.
Data set [3] has as its target T2, ATP-dependent translocase ABCB1 (Mus musculus, UniProt P21447). Put plainly: TP_TRANSPORTER: Western (protein level: increase to 220%) in vivo, liver of Him OF1 mouse.
The target in data set [4] is T2, ATP-dependent translocase ABCB1. Put plainly: TP_TRANSPORTER: RT-PCR (mRNA level: 2 fold) in vivo, liver of Him OF1 mouse.
Data set [5] deals with T3, Solute carrier organic anion transporter family member 1A1 (Mus musculus, UniProt Q9QXZ6).
T3 sequence (Q9QXZ6 whole entry): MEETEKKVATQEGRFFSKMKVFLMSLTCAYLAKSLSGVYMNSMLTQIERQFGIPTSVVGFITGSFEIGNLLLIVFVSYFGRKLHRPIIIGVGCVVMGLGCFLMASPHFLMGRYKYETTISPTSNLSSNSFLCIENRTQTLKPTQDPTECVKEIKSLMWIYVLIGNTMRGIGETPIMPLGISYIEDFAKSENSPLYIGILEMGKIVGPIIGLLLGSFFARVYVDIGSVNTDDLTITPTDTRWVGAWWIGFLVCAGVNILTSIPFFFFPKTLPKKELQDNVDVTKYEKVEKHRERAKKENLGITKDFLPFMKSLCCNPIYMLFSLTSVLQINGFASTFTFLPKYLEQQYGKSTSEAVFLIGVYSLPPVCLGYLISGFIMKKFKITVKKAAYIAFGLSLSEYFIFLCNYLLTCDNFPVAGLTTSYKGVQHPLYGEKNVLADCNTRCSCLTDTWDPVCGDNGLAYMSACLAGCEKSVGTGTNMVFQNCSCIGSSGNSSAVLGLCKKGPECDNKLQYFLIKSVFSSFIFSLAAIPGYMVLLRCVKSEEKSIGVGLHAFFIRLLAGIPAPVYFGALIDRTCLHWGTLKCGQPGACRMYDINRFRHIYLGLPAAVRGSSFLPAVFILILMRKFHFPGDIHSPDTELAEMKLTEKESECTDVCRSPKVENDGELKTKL
Put plainly: TP_TRANSPORTER: Western (protein level: reduction to 45% of control) in vivo, liver of Him OF1 mouse.

The target in data set [6] is T3, Solute carrier organic anion transporter family member 1A1. As to the kind of experiment: TP_TRANSPORTER: RT-PCR (mRNA level: reduction to 72 % of control) in vivo, liver of Him OF1 mouse.

T2 sequence (P21447 whole entry): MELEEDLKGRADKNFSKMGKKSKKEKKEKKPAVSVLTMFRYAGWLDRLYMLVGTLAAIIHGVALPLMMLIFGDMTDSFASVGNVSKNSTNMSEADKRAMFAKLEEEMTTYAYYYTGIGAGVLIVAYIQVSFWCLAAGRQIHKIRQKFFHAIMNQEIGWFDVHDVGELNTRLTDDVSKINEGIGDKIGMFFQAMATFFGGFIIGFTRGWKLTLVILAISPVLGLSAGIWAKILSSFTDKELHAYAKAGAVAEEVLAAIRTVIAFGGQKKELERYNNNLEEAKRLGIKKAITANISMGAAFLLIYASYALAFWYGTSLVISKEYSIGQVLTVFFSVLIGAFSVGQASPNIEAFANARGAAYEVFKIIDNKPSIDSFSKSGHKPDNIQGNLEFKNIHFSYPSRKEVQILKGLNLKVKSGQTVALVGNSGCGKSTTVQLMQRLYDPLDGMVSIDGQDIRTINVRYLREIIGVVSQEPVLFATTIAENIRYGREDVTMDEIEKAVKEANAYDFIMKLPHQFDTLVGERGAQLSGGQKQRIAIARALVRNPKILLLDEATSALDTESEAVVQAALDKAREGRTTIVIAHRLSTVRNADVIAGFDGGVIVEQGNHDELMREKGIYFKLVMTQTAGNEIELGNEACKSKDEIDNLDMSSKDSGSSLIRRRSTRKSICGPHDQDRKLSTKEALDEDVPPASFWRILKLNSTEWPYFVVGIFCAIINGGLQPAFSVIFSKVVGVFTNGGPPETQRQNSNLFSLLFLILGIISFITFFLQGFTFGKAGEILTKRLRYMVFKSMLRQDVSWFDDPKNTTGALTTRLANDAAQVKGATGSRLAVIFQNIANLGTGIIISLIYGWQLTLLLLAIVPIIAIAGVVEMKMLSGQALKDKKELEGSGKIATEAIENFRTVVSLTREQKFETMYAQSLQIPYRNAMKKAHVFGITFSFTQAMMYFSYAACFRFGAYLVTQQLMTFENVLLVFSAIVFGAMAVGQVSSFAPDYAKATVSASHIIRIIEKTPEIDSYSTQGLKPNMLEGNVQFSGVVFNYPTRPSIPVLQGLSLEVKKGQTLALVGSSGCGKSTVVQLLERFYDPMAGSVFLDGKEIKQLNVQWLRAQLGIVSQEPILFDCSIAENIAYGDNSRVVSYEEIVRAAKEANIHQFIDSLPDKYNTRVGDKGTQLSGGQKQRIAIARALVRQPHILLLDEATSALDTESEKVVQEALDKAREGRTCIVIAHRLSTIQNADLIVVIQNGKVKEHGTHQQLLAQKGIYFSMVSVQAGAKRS
T1 sequence (Q8VI47 whole entry): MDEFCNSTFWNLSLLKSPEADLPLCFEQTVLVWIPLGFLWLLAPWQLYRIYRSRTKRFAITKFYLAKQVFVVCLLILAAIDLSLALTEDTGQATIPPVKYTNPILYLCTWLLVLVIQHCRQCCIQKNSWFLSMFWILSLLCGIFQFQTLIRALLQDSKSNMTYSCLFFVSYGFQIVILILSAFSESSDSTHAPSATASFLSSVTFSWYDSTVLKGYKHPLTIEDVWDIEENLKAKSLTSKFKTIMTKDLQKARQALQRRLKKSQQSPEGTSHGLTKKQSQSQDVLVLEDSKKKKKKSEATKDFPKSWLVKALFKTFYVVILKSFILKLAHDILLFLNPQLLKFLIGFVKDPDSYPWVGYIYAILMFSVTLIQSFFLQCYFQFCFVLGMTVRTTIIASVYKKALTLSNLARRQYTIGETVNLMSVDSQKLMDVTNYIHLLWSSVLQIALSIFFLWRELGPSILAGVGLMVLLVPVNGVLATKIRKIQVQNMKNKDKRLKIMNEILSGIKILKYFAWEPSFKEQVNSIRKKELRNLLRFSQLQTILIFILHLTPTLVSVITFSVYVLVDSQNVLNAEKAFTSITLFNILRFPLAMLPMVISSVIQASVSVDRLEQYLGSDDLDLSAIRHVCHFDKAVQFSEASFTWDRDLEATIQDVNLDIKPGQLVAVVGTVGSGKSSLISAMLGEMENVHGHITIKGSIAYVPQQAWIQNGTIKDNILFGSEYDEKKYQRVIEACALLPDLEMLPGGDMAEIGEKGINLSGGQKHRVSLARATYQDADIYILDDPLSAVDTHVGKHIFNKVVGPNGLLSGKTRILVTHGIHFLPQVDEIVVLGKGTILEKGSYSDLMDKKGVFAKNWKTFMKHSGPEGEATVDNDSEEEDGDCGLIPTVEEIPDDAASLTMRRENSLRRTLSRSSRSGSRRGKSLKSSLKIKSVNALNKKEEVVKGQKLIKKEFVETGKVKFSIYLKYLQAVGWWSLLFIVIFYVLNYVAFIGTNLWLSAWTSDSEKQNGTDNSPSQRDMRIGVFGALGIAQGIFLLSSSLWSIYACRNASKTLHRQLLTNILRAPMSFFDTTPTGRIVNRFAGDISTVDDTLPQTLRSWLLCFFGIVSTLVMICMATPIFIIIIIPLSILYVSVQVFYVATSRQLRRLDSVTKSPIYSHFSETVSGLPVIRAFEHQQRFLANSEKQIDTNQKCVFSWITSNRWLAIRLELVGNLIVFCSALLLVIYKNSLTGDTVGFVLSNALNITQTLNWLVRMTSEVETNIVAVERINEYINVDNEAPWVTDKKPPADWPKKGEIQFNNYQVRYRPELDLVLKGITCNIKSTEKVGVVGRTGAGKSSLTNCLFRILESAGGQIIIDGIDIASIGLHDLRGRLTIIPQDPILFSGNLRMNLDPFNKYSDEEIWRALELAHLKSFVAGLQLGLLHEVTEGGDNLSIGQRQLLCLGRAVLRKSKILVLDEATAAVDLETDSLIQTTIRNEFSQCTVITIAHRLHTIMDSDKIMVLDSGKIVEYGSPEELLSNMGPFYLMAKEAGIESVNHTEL

On to `C[C@H](CCC(=O)O)[C@H]1CC[C@H]2[C@@H]3[C@@H](O)C[C@@H]4C[C@H](O)CC[C@]4(C)[C@H]3CC[C@]12C` [URSODIOL], for which the Activity result in data set [1] was “inducer [+]”; in data set [2], “inducer [+]”; in data set [3], “inducer [+]”; in data set [4], “inducer [+]”; in data set [5], “inducer [Decrease]”; in data set [6], “inducer [Decrease]”.

Values taken from ChEMBL document CHEMBL2074506, “Effects of ursodeoxycholic and cholic acid feeding on hepatocellular transporter expression in mouse liver” (Gastroenterology, 2001).
